Measured values reported in patent US20150289512A1, “METHOD FOR PROMOTING PLANT GROWTH” (SUMITOMO CHEMICAL COMPANY, LIMITED, priority 2012, published 2015).

Key:
[1] = tested on: Rice (variety: Nipponbare); assay: Test Example 1: promotion of root growth by hydroponics of rice, 10 ppm; format: in vivo; settings: Oryza sativa, hydroponic solution containing the test compound at 10 ppm, average of 4 or 5 individuals, read-out: Relative value of length of seminal root (%-untreated control plot)
Method in brief: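 Surface-sterilised seeds germinated 3 days in the dark at 28° C in hydroponic solution with compound at 10 ppm, then grown 3 days hydroponically with compound at 10 ppm (26° C, 4,000 lux, 16 h day, 50% humidity). Seminal root length measured by image analysis, averaged over 4 or 5 plants per plot.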

[2] = tested on: Rice (variety: Nipponbare); assay: Test Example 3: promotion of root growth by hydroponics of rice, 0.1 ppm; format: in vivo; settings: Oryza sativa, hydroponic solution containing the test compound at 0.1 ppm, average of 4 or 5 individuals, read-out: Relative value of length of seminal root (%-untreated control plot)
Method in brief: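 Surface-sterilised Nipponbare seeds were germinated 3 days in the dark at 28 °C in ¼-strength Hoagland solution containing 0.1 ppm compound; DMSO-only solution served as control. Seedlings were then grown 3 days hydroponically at 26 °C, 4,000 lux, 16 h day. Seminal root length was measured and averaged over 4–5 plants.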

Structure (SMILES)	change in vivo at 10 ppm [1]	change in vivo at 0.1 ppm [2]
COC(=O)c1oc2ccc(C(F)(F)F)cc2c1NC(C)=O [Compound 63]	> 5%	–
COC(=O)c1oc2ccccc2c1NC(C)=O [Compound 40]	> 5%	> 5%
CCOC(=O)c1oc2ccc(C(F)(F)F)cc2c1C(F)(F)F [Compound 71]	> 5%	> 5%
COC(=O)c1oc2ccccc2c1C(F)(F)F [Compound 83]	–	> 5%
O=C(O)c1oc2ccccc2c1C(F)(F)F [Compound 82]	> 5%	–
COC(=O)c1oc2ccc(C(F)(F)F)cc2c1O [Compound 50]	> 5%	> 5%
O=C(Nc1ccccc1)c1cc2cc(C(F)(F)F)ccc2o1 [Compound 53]	> 5%	> 5%
Cc1c(C(=O)O)oc2ccccc12 [Compound 36]	> 5%	> 5%
O=C(OCc1ccccc1)c1oc2ccc(C(F)(F)F)cc2c1C(F)(F)F [Compound 73]	–	> 5%
NC(=O)c1cc2cc(C(F)(F)F)ccc2o1 [Compound 51]	> 5%	> 5%
O=C(O)c1oc2ccc(C(F)(F)F)cc2c1C(F)(F)F [Compound 69]	> 5%	–
CNC(=O)c1oc2ccc(C(F)(F)F)cc2c1C(F)(F)F [Compound 75]	> 5%	> 5%
O=C(Nc1ccccc1)c1oc2ccc(C(F)(F)F)cc2c1C(F)(F)F [Compound 76]	> 5%	> 5%
NC(=O)c1oc2ccc(C(F)(F)F)cc2c1C(F)(F)F [Compound 74]	> 5%	> 5%
COC(=O)c1oc2ccccc2c1NC(=O)C(F)(F)F [Compound 39]	> 5%	–
O=C(O)c1nc2c(F)cc(F)cc2s1 [Compound 86]	> 5%	–
CCOC(=O)c1cc2c(C(F)(F)F)cccc2o1 [Compound 44]	> 5%	> 5%

Structure (SMILES)	change in vivo at 10 ppm [1]	change in vivo at 0.1 ppm [2]
O=C(O)c1cc2cc(Br)ccc2o1 [Compound 79]	–	> 5%
O=C(NCc1ccccc1)c1cc2cc(C(F)(F)F)ccc2o1 [Compound 54]	> 5%	> 5%
COC(=O)c1cc2c(C(F)(F)F)cccc2o1 [Compound 45]	–	> 5%
O=C(OCc1ccccc1)c1cc2cc(C(F)(F)F)ccc2o1 [Compound 56]	> 5%	> 5%
COC(=O)c1oc2ccc(C(F)(F)F)cc2c1N(C)C [Compound 62]	> 5%	–
O=C(Oc1ccccc1)c1cc2cc(C(F)(F)F)ccc2o1 [Compound 55]	> 5%	> 5%
COC(=O)c1oc2ccc(C(F)(F)F)cc2c1N(C(C)=O)C(C)=O [Compound 64]	–	> 5%
COC(=O)c1oc2ccccc2c1C [Compound 37]	> 5%	> 5%
Cc1c(C(=O)O)oc2ccc(C(F)(F)F)cc12 [Compound 34]	–	> 5%
COC(=O)c1oc2ccc(C(F)(F)F)cc2c1NS(C)(=O)=O [Compound 67]	> 5%	> 5%
CNC(=O)c1cc2cc(C(F)(F)F)ccc2o1 [Compound 52]	> 5%	> 5%
O=C(O)c1cc2c(C(F)(F)F)cccc2o1 [Compound 43]	> 5%	> 5%
NC(=O)c1oc2ccccc2c1C(F)(F)F [Compound 85]	> 5%	–
COC(=O)c1oc2ccccc2c1N(C(C)=O)C(C)=O [Compound 41]	–	> 5%
COC(=O)c1oc2ccc(C(F)(F)F)cc2c1C [Compound 33]	> 5%	> 5%
CCOC(=O)c1oc2cccc(O)c2c1C [Compound 80]	> 5%	> 5%
COC(=O)c1oc2ccc(C(F)(F)F)cc2c1NS(=O)(=O)c1ccccc1 [Compound 68]	> 5%	> 5%
